Measured values taken from patent US20220040129A1, “TREATMENT OF HYPERAMMONEMIA IN PATIENTS WITH RENAL INSUFFICIENCY” (RECORDATI S.p.A., priority 2019, published 2022).
Where two headings read alike, the source gives them in different places.

Legend:
[1] = CARIV-A-001 Part B: cross-over IV infusion over 2 hours vs oral tablet 100 mg/kg in healthy subjects; type: in vivo, human; details: for AUC(0-inf) / clearance / Cmax / half-life / CL/F / bioavailability / AUC(0-t) / AUC: both sexes, human, plasma; for AUC: read-out: aucL, Median
Method: The levels of CGA in plasma and urine were analysed using a fully validated method, which included LC-MS/MS analysis. The PK data were analysed based on a non-compartmental model. A model-based approach was implemented for the characterization of the PK properties of the IV formulation in order to estimate the level of PK exposure after different doses administered with different duration of infusion. The model outcomes provided rationales for supporting decision-making through the dose escalation process. The PK parameters were determined using SAS (version 9.3), and modelling of the PK data was performed using NONMEM (version 7.3, ICON Solutions). PART A: Mono-Centre, Randomized, Successive Groups, Double-Blind, Placebo-Controlled Study in Healthy Male and Female Subjects
Part B was a randomized, double-blind, cross-over, two-sequence study. It was conducted in 12 healthy male and female subjects.
In two treatment periods, separated by a washout of at least two weeks, subjects received a single administration of the study medication in fasting conditions, either as an IV loading dose infusion of Rec0/0491 over 2 hours (started with 6 mg/kg/h then reduced to 4.0 mg/kg/h), or an oral tablet administration of Carbaglu® (100 mg/kg).
Blood samples for PK measurements were collected at 19 timepoints for the IV administration and 17 timepoints for the oral administration. This included a sample prior to intake of the study medication and the period ranging from 20 minutes to 72 hours following the initiation of the IV infusion, and the period ranging from 30 minutes to 72 hours following oral intake. Urine was also collected for PK measurements, at the following intervals relative to the time of administration of the study medication: 0-6, 6-12, 12-24, 24-36 and 36-48 hours.
The PK analysis of Carbaglu was conducted on all subjects showing quantifiable plasma levels using standard non-compartmental approach.

[2] = Population PK model (two-compartment, zero order absorption); parameters: species or system human; details: value estimated in HVs, fixed in the model
Text: A population PK model was developed using PK data collected from the PK study mentioned above. The data was collected after variable long treatment periods lasting more than a year in some cases, with different doses, and with different dosage regimens in both pediatric and adult volunteers (N=16).
The sparse drug concentrations (24 PK samples) were fitted using a two-compartment model with zero order absorption rate, which was also used to describe the PK time course in the PK study.
The final models for Clearance and Volume were:
Wherein CL is the value of the clearance in a patient, CLt is the typical value of the clearance in adult subjects, WT is the body weight, TM50 is the maturation half time, g is the Hill coefficient and Vt is the typical value of the volume in adult subjects.

[3] = dose normalized section, Reference (IV data), in h
[4] = dose normalized section, Test (oral data), in h
[5] = dose normalized, Reference (IV data)
[6] = dose normalized, Test (oral data)

SMILES: NC(=O)N[C@@H](CCC(=O)O)C(=O)O [carglumic acid, N-carbamoyl-L-glutamic acid]
- AUC(0-inf) ([1]; iv, 12 mg/kg, IV, 12 mg/kg, N 2, read-out: AUCinf, Mean): 53800 ng·h/mL
- AUC(0-inf) ([1]; iv, 12 mg/kg, IV, 12 mg/kg, N 2, read-out: AUCinf, Median): 53800 ng·h/mL
- clearance ([1]; iv, 12 mg/kg, IV, 12 mg/kg, N 2, read-out: CL, Mean (converted)): 3.82 mL/min/kg
- clearance ([1]; iv, 12 mg/kg, IV, 12 mg/kg, N 2, read-out: CL, Median (converted)): 3.82 mL/min/kg
- Cmax ([1]; iv, 12 mg/kg, IV, 12 mg/kg, N 2, read-out: Cmax, Mean): 21400 ng/mL
- Cmax ([1]; iv, 12 mg/kg, IV, 12 mg/kg, N 2, read-out: Cmax, Median): 21400 ng/mL
- half-life ([1]; iv, 12 mg/kg, IV, 12 mg/kg, N 2, read-out: HL (Half-life), Mean (converted)): 34.9 h
- half-life ([1]; iv, 12 mg/kg, IV, 12 mg/kg, N 2, read-out: HL (Half-life), Median (converted)): 34.9 h
- clearance ([1]; iv, after IV administration, read-out: Total clearance (converted)): 5.17 mL/min/kg
- AUC(0-inf) ([1]; oral, 100 mg/kg, OR, 100 mg/kg, N 12, read-out: AUCinf, Mean): 31400 ng·h/mL
- AUC(0-inf) ([1]; oral, 100 mg/kg, OR, 100 mg/kg, N 12, read-out: AUCinf, Median): 30200 ng·h/mL
- CL/F ([1]; oral, 100 mg/kg, OR, 100 mg/kg, N 12, read-out: CL/F, Mean (converted)): 55.6 mL/min/kg
- CL/F ([1]; oral, 100 mg/kg, OR, 100 mg/kg, N 12, read-out: CL/F, Median (converted)): 55.2 mL/min/kg
- Cmax ([1]; oral, 100 mg/kg, OR, 100 mg/kg, N 12, read-out: Cmax, Mean): 3280 ng/mL
- Cmax ([1]; oral, 100 mg/kg, OR, 100 mg/kg, N 12, read-out: Cmax, Median): 2940 ng/mL
- half-life ([1]; oral, 100 mg/kg, OR, 100 mg/kg, N 12, read-out: HL (Half-life), Mean (converted)): 24.6 h
- half-life ([1]; oral, 100 mg/kg, OR, 100 mg/kg, N 12, read-out: HL (Half-life), Median (converted)): 23.7 h
- bioavailability ([1]; oral, 100 mg/kg, 12 subjects, read-out: Absolute bioavailability, 90% confidence intervals): 8.3 to 11%
- AUC(0-t) ([1]; oral, OR, 100 mg/kg, N 12): 29800 ng·h/mL
- AUC ([1]; oral, OR, 100 mg/kg, N 12): 29100 ng·h/mL
- bioavailability ([1]; po, 100 mg/kg, read-out: Oral bioavailability): ~10%
- AUC(0-t) ([1]; IV, 8 mg/kg, N 10): 22900 ng·h/mL
- AUC ([1]; IV, 8 mg/kg, N 10): 22000 ng·h/mL
- AUC(0-t) ([1]; IV, 12 mg/kg, N 2): 52100 ng·h/mL
- AUC ([1]; IV, 12 mg/kg, N 2): 52100 ng·h/mL
- refHalf_life, Max [1, 3]: 52.95
- refHalf_life, Mean [1, 3]: 31.351
- refHalf_life, Median [1, 3]: 28.81
- refHalf_life, Min [1, 3]: 22.85
- testHalf life, Mean ([1]; dose normalized section, Test (oral data)): 24.6 h
- testHalf_life, Max [1, 4]: 35.31
- testHalf_life, Median [1, 4]: 23.71
- testHalf_life, Min [1, 4]: 17.56
- refAUCinf, Max [1, 5]: 5219
- refAUCinf, Mean [1, 5]: 3299.58
- refAUCinf, Median [1, 5]: 3162.4
- refAUCinf, Min [1, 5]: 2118.74
- refAUClast, Max [1, 5]: 5084.78
- refAUClast, Mean [1, 5]: 3105.22
- refAUClast, Median [1, 5]: 2840.05
- refAUClast, Min [1, 5]: 1964.13
- refCL, Max [1, 5]: 0.059
- refCL, Mean [1, 5]: 0.038
- refCL, Median [1, 5]: 0.04
- refCL, Min [1, 5]: 0.016
- refCmax, Max [1, 5]: 1958.33
- refCmax, Mean [1, 5]: 1195.1
- refCmax, Median [1, 5]: 1148.13
- refCmax, Min [1, 5]: 675
- testAUCinf, Max [1, 6]: 456.96
- testAUCinf, Mean [1, 6]: 314.25
- testAUCinf, Min [1, 6]: 218.52
- testAUClast, Max [1, 6]: 442.5
- testAUClast, Mean [1, 6]: 298.07
- testAUClast, Min [1, 6]: 200.31
- testCL, Max [1, 6]: 0.046
- testCL, Mean [1, 6]: 0.033
- testCL, Min [1, 6]: 0.022
- testCmax, Max [1, 6]: 56.2
- testCmax, Mean [1, 6]: 32.84
- testCmax, Min [1, 6]: 19.5
- Absolute bioavailability F of the oral vs IV formulation, Mean ([1]; from dose normalized AUCinf, 12 subjects): 9.87%
- Total clearance after oral administration corrected by the bioavailability value of F=9.87% ([1]; oral): 5.83 mL/min/kg
- CLt, typical value of the clearance in adult subjects [2]: 0.178
